Active and inactive are the calls of the source. The calls are words filed in the database; no cut-off is given here. Bounds are passed on as bounds.

Data set [1] deals with T1, GABA transporter (Rattus norvegicus, UniProt P31647+P23978+P31646+P48056). The class given is functional, subcellular, Brain.
For data set [2], the target named is GABA-A receptor; anion channel.
Data set [3] can be described thus: I/U ratio for neutral amino acids. The class given is functional.
For data set [4], the species on record is Felis catus. The data set can be described thus: In vitro effect of glycine antagonism on single neurons of cat spinal cord; Glycine antagonists are indicated by Delta symbol. The class given is functional, organism-based. The conditions noted are these: filed as antagonist.
The species entered for data set [5] is Felis catus. Put plainly: In vitro effect of Gamma-aminobutyric acid enhancement on single neurons of cat spinal cord (ND = no data, No significant activity). The data set is classed as functional.
In data set [6] the target is T2, GABA-A receptor; anion channel (Homo sapiens) (UniProt P14867+P47870+P18507+P28472+P48169+Q99928+Q9UN88+P34903+O00591+O14764+Q8N1C3+P18505+P78334+P47869+P31644+Q16445). Put plainly: In vitro effect on Gamma-aminobutyric acid agonism on single neurons of cat spinal cord (- is less active than GABA). The data set is classed as functional, tissue-based. The following applies: Felis catus, filed as partial agonist, target entry is the homologue from another species.

The species entered for data set [7] is Felis catus. Put plainly: In vitro effect of Gamma-aminobutyric acid enhancement on single neurons of cat spinal cord. The data set is classed as functional.
For data set [8], the species on record is Felis catus. The data set can be described thus: In vitro effect of Gamma-aminobutyric acid enhancement on single neurons of cat spinal cord (No significant activity). The class given is functional.
The species entered for data set [9] is Felis catus. Put plainly: In vitro effect of glycine antagonism on single neurons in the cat spinal cord; Glycine antagonists are indicated by the Delta symbol. The class given is functional, organism-based. The following applies: filed as antagonist.
The species named for data set [10] is Felis catus. Put plainly: In vitro effect of GABA enhancement on single neurons in the cat spinal cord;. The data set is classed as functional, organism-based.
Data set [11] is described as follows: I/U ratio for neutral amino acids. The class given is functional.
Data set [12] has as its target Gamma-aminobutyric acid receptor subunit gamma-1 (Rattus norvegicus, UniProt P23574). Put plainly: In vitro affinity for GABA binding sites on purified synaptic membranes from rat brain.
The target of data set [13] is T1, GABA transporter. Put plainly: In vitro effect on GABA uptake in a crude preparation of synaptosomes from rat brain. The data set is classed as functional, subcellular.
The target of data set [14] is T2, GABA-A receptor; anion channel (Homo sapiens). The following applies: Felis catus; Spinal cord; filed as agonist.

Sequence of Gamma-aminobutyric acid receptor subunit gamma-1 (P23574 whole entry): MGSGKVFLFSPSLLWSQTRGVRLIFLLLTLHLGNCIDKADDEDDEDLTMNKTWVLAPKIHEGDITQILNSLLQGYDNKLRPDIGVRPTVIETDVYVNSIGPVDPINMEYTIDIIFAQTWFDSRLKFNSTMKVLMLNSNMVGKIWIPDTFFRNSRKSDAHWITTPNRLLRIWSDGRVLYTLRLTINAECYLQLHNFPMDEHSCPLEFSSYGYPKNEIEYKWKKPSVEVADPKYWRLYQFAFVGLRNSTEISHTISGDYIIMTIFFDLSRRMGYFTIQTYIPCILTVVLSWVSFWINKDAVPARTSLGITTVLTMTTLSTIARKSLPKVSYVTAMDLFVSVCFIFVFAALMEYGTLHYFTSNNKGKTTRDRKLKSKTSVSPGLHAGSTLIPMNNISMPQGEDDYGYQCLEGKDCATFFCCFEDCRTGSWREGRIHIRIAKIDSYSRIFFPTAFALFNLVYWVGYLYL
Description for physchem: Dissociation constant (pKa)

In general, IC50 refers to the midpoint of a concentration-inhibition curve. As to `Oc1nsc2c1CCNCC2`, the IC50 on GABA transporter [1] was found to be 400 µM; in data set [2], 31 µM. In data set [3], the Ratio is 200. Besides, in the data set filed under Felis catus [4], the Glycine antagonism result was “Antagonist”. Besides, in the data set listed under Felis catus [5], the GABA enhancement result is “inactive”.

The pKa is the negative logarithm of the acid dissociation constant. Low values mean a group that gives up its proton readily, high ones a group that holds its proton tightly. In “physchem”, `O=C(O)N1CCc2onc(O)c2CC1` returned a pKa of 5.6.

Take `Oc1nsc2c1CCNC2`: the IC50 against GABA transporter [1] turned out to be 220 µM; in data set [2], 42 µM. Besides, the GABA agonism entry in [6] was “Partial agonist”. Further, the Ratio in data set [3] was 16. The compound further returned a pKa in the data set “physchem” of 6.1.

In the data set “physchem”, `COc1noc2c1CCNC2` gave a pKa of 7.1.

Take `Oc1nsc2c1CNCC2`: the IC50 against GABA transporter [1] was 230 µM; in data set [2], greater than 100 µM. Besides, the GABA enhancement entry in the data set filed under Felis catus [7] was “Active”. Besides, the Ratio in data set [3] was 63. The pKa in “physchem” is 6.1.

Consider `Oc1noc2c1CCNCC2`, for which the figures for the IC50 (against GABA transporter [1]; in [2]) were greater than 500 µM and 15 µM, respectively. Moreover, in the data set listed under Felis catus [8], the GABA enhancement result was “inactive”. The Ratio in [3] came to 4000. Besides, in the data set listed under Felis catus [9], the Glycine antagonism entry was “Antagonist”. In “physchem”, this compound registered a pKa of 4.8.

`COC(=O)N1CCc2c(O)noc2C1`: the pKa in the data set “physchem” was 5.3.

`COC(=O)N1CCc2snc(O)c2C1` registered a pKa in the data set “physchem” of 7.4.

As for `COc1noc2c1CNCC2`, in “physchem”, the pKa was 7.7.

In the case of `COC(=O)N1CCc2snc(O)c2CC1`, in the data set “physchem”, the pKa worked out at 7.6.

For `Oc1noc2c1CNCC2`, the GABA enhancement result in the data set listed under Felis catus [10] was “Active”. For the same compound, the Ratio in data set [11] came out at 2500. For the same compound, the IC50 in [12] worked out at 72 µM; at GABA transporter [13], 160 µM.

`NCCCC(=O)O`: in data set [14], the GABA agonism entry is “Agonist”.

Regarding `COC(=O)N1CCc2c(O)nsc2C1`, the pKa in the data set “physchem” worked out at 7.3.

(Values after ChEMBL document CHEMBL1122237, “4,5,6,7-Tetrahydroisothiazolo[5,4-c]pyridin-3-ol and related analogues of THIP. Synthesis and biological activity” (J Med Chem, 1983).)
